Data as given in article PMC10848004 (Saudi Pharmaceutical Journal : SPJ, 2024).
pIC50: −log10 of the molar value.

Tests used:
[1] = tested on: glaucomatous rabbit eye model; assay: Antiglaucoma activity in vivo, IOP lowering, topical; conditions: 1 % concentration, at 1 h post-administration
CYP2D6 = CYP2D6 (Homo sapiens, UniProt P10635); assay: CYP inhibition in HLM, CYP2D6; type: in vitro ADME
Chain of CYP2D6 (P10635 whole entry): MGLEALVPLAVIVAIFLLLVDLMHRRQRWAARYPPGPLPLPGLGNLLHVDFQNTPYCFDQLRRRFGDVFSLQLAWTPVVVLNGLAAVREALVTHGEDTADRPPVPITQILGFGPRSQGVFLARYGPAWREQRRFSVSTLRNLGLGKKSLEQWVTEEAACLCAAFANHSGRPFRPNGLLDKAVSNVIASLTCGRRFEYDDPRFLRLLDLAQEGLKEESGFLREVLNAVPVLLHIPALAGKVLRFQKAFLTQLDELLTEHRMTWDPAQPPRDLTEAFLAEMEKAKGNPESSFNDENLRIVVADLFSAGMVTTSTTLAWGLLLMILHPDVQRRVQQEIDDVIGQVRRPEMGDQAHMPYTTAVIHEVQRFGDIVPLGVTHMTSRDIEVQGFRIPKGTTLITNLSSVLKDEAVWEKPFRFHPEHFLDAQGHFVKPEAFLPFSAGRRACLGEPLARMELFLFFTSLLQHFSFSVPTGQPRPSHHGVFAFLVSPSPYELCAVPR

Row | Compound | maximal intraocular pressure lowering effect [1] | pIC50 (CYP2D6)
1 | CCN[C@H]1CN(CCCOC)S(=O)(=O)c2sc(S(N)(=O)=O)cc21 [BRZ, brinzolamide] | around 5 mm Hg | –
2 | COc1ccc2c(c1)[C@]13CCCC[C@@H]1[C@H](C2)N(C)CC3 [Dextromethorphan] | – | 5.87
